# Entries after “also recorded” stand apart in the source; their conditions may differ.
# How the values were obtained:
# PPAR-γ = target: T1, PPAR-γ (Homo sapiens, UniProt P37231); assay: Nuclear receptor cross-reactivity transcriptional activation assay; assay type: cell-based; settings: agonist and antagonist modes
# T1 construct: expressed in transfected cells
# Source text: (§1) Compound IV was screened for cross-reactivity against rat isoforms of glucocorticoid receptor (GR), mineralocorticoids receptor (MR), progesterone receptor (PR), androgen receptor (AR) and human isoforms of farnesoid X receptor (FXR), liver X receptor (LXR), peroxisome proliferator-activated receptors (PPAR-α and PPAR-γ), and retinoid X receptor (RXR-α) in both agonist and antagonist modes in transcriptional activation assays.
# androgen receptor (AR) = target: T2, androgen receptor (AR) (Rattus norvegicus, UniProt P15207); assay: as above; assay type: cell-based
# T2 construct: expressed in transfected cells
# T2 sequence (P15207 whole entry S389L): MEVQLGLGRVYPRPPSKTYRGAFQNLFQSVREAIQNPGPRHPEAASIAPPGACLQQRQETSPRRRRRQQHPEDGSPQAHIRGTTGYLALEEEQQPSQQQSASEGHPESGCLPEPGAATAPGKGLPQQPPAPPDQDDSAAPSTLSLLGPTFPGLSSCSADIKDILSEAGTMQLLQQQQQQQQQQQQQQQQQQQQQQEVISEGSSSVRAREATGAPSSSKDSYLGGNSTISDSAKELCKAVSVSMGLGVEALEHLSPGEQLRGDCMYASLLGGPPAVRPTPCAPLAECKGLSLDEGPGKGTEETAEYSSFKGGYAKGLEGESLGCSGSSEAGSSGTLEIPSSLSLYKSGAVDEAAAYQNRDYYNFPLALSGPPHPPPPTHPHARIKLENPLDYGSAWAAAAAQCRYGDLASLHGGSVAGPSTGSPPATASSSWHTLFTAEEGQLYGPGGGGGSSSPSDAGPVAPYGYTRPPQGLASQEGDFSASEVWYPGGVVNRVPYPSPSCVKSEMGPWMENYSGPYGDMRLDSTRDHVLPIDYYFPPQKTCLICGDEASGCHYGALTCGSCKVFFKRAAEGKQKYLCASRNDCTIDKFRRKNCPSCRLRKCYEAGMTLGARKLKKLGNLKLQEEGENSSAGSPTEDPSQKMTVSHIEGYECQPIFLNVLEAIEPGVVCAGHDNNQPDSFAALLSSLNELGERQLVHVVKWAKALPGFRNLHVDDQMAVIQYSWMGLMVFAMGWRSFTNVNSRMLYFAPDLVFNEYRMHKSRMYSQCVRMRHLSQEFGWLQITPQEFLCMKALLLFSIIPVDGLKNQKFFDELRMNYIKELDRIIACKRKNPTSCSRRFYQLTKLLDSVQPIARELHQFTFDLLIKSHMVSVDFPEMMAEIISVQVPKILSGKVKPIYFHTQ
# Source text: as §1
# [1] = target: T3, farnesoid X receptor (FXR) (Homo sapiens, UniProt Q96RI1); assay: as above; assay type: cell-based; settings: agonist and antagonist modes
# T3 construct: expressed in transfected cells
# T3 sequence (Q96RI1 whole entry): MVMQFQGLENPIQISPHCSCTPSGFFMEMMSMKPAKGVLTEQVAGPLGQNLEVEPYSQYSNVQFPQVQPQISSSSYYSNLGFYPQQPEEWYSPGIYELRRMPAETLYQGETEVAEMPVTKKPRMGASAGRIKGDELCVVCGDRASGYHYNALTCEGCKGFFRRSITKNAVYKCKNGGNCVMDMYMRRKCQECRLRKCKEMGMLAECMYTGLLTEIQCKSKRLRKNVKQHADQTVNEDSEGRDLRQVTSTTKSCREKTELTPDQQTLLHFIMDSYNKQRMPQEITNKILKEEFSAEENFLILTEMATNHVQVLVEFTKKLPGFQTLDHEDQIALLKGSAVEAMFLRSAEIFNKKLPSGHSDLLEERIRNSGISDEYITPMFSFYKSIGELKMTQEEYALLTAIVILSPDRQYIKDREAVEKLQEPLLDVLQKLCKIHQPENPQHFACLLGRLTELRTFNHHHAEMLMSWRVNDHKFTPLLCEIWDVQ
# Source text: as §1
# [2] = target: T4, progesterone receptor (PR) (Rattus norvegicus, UniProt Q63449); assay: as above; assay type: cell-based; settings: agonist and antagonist modes
# T4 construct: expressed in transfected cells
# T4 sequence (Q63449 whole entry): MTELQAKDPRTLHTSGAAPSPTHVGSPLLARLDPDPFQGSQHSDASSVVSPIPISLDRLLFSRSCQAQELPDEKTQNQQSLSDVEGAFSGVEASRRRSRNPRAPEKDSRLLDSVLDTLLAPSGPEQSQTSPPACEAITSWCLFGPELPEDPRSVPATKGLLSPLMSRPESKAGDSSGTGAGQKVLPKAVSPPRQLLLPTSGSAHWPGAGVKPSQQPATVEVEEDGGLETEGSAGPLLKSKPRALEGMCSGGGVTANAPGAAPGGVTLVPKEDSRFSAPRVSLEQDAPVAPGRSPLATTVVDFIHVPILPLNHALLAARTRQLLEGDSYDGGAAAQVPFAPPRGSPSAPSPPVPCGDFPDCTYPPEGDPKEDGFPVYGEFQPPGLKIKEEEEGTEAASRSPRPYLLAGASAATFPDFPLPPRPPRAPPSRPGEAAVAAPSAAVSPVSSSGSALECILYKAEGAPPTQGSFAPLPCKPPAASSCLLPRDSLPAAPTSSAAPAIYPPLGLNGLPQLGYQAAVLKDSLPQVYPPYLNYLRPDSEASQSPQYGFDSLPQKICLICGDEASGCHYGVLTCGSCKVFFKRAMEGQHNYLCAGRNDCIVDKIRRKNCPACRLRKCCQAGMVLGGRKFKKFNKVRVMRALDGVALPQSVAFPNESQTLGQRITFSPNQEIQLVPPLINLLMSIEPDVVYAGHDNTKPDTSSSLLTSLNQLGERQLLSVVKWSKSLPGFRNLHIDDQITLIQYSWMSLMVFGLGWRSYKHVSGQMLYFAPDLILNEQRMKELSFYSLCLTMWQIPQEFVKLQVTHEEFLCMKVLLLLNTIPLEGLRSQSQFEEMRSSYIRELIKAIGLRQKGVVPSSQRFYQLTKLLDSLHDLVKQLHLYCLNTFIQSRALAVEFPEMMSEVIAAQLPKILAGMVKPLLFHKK
# Source text: as §1
# [3] = target: T5, retinoid X receptor (RXR-α) (Homo sapiens, UniProt P19793); assay: as above; assay type: cell-based; settings: agonist and antagonist modes
# T5 construct: expressed in transfected cells
# T5 sequence (P19793 whole entry): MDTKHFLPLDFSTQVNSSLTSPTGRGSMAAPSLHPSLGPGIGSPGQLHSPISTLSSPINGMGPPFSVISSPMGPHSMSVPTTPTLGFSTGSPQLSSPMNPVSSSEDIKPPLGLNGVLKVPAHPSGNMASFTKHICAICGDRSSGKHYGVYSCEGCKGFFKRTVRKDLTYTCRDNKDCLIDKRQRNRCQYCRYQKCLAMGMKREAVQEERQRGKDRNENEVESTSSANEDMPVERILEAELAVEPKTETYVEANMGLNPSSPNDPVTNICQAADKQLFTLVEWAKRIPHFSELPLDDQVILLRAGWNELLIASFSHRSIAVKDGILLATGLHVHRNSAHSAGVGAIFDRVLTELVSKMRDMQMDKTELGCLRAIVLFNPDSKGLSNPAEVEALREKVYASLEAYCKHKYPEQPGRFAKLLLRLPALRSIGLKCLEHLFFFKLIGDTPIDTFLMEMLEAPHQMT
# Source text: as §1
# rats = assay: Single and repeated oral dose toxicity in rats (up to 28 days); assay type: in vivo, rat
# Source text: Compound IV was well-tolerated by rats and dogs after single and repeated oral administration (up to 28 days).
# [4] = tested on: healthy young male volunteers; assay: Study 1: 56 day proof of concept study in healthy young male volunteers (600, 1000, 1500 mg); assay type: in vivo, human; settings: for BSAP change / FSH change / Free testosterone change / Osteocalcin change / SHBG change / Total testosterone change / serum PSA change: castrated subjects
# Protocol: A 56 day, proof of concept study of Compound IV was conducted in healthy young male volunteers. (Table 22 and Table 23 below). […] The free testosterone levels were reduced to levels below the levels expected from surgical castration or those expected from chemical castration with LHRH agonists or antagonists. This is due to a dose dependent increase in sex hormone binding globulin (SHBG) that is observed with Compound IV.
# [5] = tested on: treatment naïve prostate cancer patients; assay: Study 5: loading dose study (1000 mg BID, 1500 mg BID) in treatment naïve prostate cancer patients; assay type: in vivo; settings: for Castration (%): patients receiving >14 days; for Subjects that reached castrate levels of serum total testosterone: subjects that had reached Day 28
# Protocol: Another study (Study 5) to assess 1000 mg twice per day and 1500 mg twice daily loading doses of Compound IV for 28 days was conducted. Subjects that were castrate on Day 28 received either 1000 mg or 2000 mg Compound IV daily to maintain the castration.
# Thirty (30) and 28 subjects were randomized to the 1500 mg BID and 1000 mg BID loading doses, respectively. Among the subjects that had reached Day 28, 90% (18/20) of the subjects in the 1500 mg BID dose group and 94% (17/18) of the subjects in the 1000 mg BID dose group had reached castrate levels of serum total testosterone. During this study, two (2) subjects in the 1500 mg BID dose group experienced a VTE, including one fatal pulmonary embolus (PE) and three (3) subjects in the 1000 mg BID dose group experienced a VTE. See FIG. 26 for an overview of all the clinical studies on Compound IV.
# [6] = 600 mg, sufficiently compliant subjects
# [7] = 1000 mg, sufficiently compliant subjects
# [8] = 1500 mg, sufficiently compliant subjects
# T1 sequence (P37231 whole entry): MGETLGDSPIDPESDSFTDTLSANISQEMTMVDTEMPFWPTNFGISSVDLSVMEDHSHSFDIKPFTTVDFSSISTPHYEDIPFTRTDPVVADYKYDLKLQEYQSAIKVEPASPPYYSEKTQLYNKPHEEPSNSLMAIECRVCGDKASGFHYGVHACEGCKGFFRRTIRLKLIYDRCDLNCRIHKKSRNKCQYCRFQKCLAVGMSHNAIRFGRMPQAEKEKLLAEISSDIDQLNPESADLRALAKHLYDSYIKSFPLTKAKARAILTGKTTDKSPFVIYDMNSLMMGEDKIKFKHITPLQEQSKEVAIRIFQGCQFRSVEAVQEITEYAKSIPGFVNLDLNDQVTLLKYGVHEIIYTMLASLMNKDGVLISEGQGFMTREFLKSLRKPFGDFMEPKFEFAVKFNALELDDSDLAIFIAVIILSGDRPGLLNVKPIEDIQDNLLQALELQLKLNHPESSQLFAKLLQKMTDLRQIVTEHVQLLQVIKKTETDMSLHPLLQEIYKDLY
smiles,measurement,setting,value
"O=C(c1ccc(O)c(F)c1)N(c1ccc(O)cc1)c1ccc(F)cc1 [Compound IV, 3-fluoro-N-(4-fluorophenyl)-4-hydroxy-N-(4-hydroxyphenyl)benzamide]",Agonist or antagonist activity at PPAR-γ,PPAR-γ,did not display any agonist or antagonist activity
same,Cross-reaction with androgen receptor (AR),androgen receptor (AR); FIG. 12B,does not; also recorded: did not
same,Agonist or antagonist activity at AR,androgen receptor (AR); agonist and antagonist modes,did not display any agonist or antagonist activity
same,Agonist or antagonist activity at FXR,[1],did not display any agonist or antagonist activity
same,Agonist or antagonist activity at PR,[2],did not display any agonist or antagonist activity
same,Agonist or antagonist activity at RXR-α,[3],did not display any agonist or antagonist activity
same,Tolerability after single and repeated oral administration,rats,well-tolerated
same,% subjects castrated,[4]; [6],0% ^
same,BSAP % change from baseline to final observation,[4]; [6],−18.7 ± 18.8%
same,FSH % change from baseline to final observation,[4]; [6],−48.4 ± 53.9%
same,Free testosterone % change from baseline to final observation,[4]; [6],−32.9 ± 43.2%
same,Osteocalcin % change from baseline to final observation,[4]; [6],−32.8 ± 11.1%
same,SHBG % change from baseline to final observation,[4]; [6],+363 ± 139%
same,Total testosterone % change from baseline to final observation,[4]; [6],+22.1 ± 51.9%
same,serum PSA % change from baseline to final observation,[4]; [6],−43.8 ± 21.1%
same,BSAP change,[4]; 1000 mg,6.0 ± 29%
same,FSH change,[4]; 1000 mg,−91 ± 5.2%
same,Free testosterone change,[4]; 1000 mg,−98.2 ± 0.146%
same,Osteocalcin change,[4]; 1000 mg,−20 ± 15%
same,SHBG change,[4]; 1000 mg,471 ± 102%
same,Total testosterone change,[4]; 1000 mg,−94.7 ± 0.228%
same,serum PSA change,[4]; 1000 mg,−52 ± 28%
same,% subjects castrated,[4]; [7],75% ^
same,BSAP % change from baseline to final observation,[4]; [7],−5.97 ± 31.6%
same,FSH % change from baseline to final observation,[4]; [7],−78.4 ± 29.4%
same,Free testosterone % change from baseline to final observation,[4]; [7],−86.4 ± 26.4%
same,Osteocalcin % change from baseline to final observation,[4]; [7],−21.4 ± 14.4%
same,SHBG % change from baseline to final observation,[4]; [7],+446 ± 130%
same,Total testosterone % change from baseline to final observation,[4]; [7],−63.0 ± 59.9%
same,serum PSA % change from baseline to final observation,[4]; [7],−42.8 ± 30.2%
same,Subjects that reached castrate levels of total testosterone,"[4]; 1500 mg dose group, by Day 28, sufficiently compliant subjects",90%
same,BSAP change,[4]; 1500 mg,−19 ± 21%
same,FSH change,[4]; 1500 mg,−88 ± 4.8%
same,Free testosterone change,[4]; 1500 mg,−97.7 ± 0.155%
same,Osteocalcin change,[4]; 1500 mg,−23 ± 17%
same,SHBG change,[4]; 1500 mg,524 ± 212%
same,Total testosterone change,[4]; 1500 mg,−92.8 ± 0.65%
same,serum PSA change,[4]; 1500 mg,−43 ± 24%
same,% subjects castrated,[4]; [8],92% ^
same,BSAP % change from baseline to final observation,[4]; [8],−21.1 ± 17.0%
same,FSH % change from baseline to final observation,[4]; [8],−89.7 ± 5.07%
same,Free testosterone % change from baseline to final observation,[4]; [8],−97.5 ± 1.64%
same,Osteocalcin % change from baseline to final observation,[4]; [8],−18.2 ± 18.7%
same,SHBG % change from baseline to final observation,[4]; [8],+591 ± 258%
same,Total testosterone % change from baseline to final observation,[4]; [8],−90.6 ± 9.67%
same,serum PSA % change from baseline to final observation,[4]; [8],−48.1 ± 17.0%
same,SHBG increase over baseline,"[4]; each dose arm (600, 1000, 1500 mg), Study 1",300-600%
same,Subjects that experienced a VTE,[5]; 1000 mg BID dose group,3 subjects
same,Castration (%),"[5]; 1000 mg BID, D28",84.2%
same,Castration (%),"[5]; 1000 mg BID, Ever",90%
same,Subjects that reached castrate levels of serum total testosterone,[5]; 1000 mg BID,94%
same,Subjects that experienced a VTE,"[5]; 1500 mg BID dose group, including one fatal pulmonary embolus",2 subjects
same,Castration (%),"[5]; 1500 mg BID, D28",85.7%
same,Castration (%),"[5]; 1500 mg BID, Ever",95.2%
same,Subjects that reached castrate levels of serum total testosterone,[5]; 1500 mg BID,90%

# From US9624161B2 (priority 2009, dated 2017)
